Measured values published in the NIST ThermoML archive (doi:10.1016/j.fluid.2013.10.034).
Numbers after ± are expanded uncertainties.

Columns and labels:
[1] = 298.15 K; 101.33 kPa; Liquid; Vibrating tube method
[2] = refractive index (Na D-line) (dimensionless); conditions: 298.15 K; 101.33 kPa; Liquid; Standard Abbe refractometry

| mass density [1] | refractive index [2] | Compound |
| --- | --- | --- |
| 799.62 ± 0.11 kg/m3 | 1.3836 ± 0.0005 | CCCO [propan-1-ol] |
| 782.7 ± 0.15 kg/m3 | 1.3754 ± 0.0005 | CC(C)O [propan-2-ol] |
| – | 1.3325 ± 0.0005 | O [water] |

| Compound | mass density [1] | refractive index [2] |
| --- | --- | --- |
| CC(=O)CC(C)C [4-methylpentan-2-one] | 795.94 ± 0.14 kg/m3 | 1.3936 ± 0.0005 |
